Data published in publication PMC3983388 (Journal of Medicinal Chemistry, 2014).
Values after ≈ are worked out from the molar mass of the structure shown.

Tests used:
[1] = in vivo, po; cited from earlier work
[2] = pH 6.8, aqueous solubility pH 6.8

Row | Structure (SMILES) | solubility (physchem; [2]) | solubility (physchem; pH 1, aqueous solubility pH 1.0) | serum levels [1]
1 | Oc1c(CNc2ccccn2)ccc2cccnc12 [Compound 56, 7-(((Pyridin-2-yl)amino)methyl)quinolin-8-ol] | 0.111 µM (≈ 0.0279 µg/mL) | – | –
2 | Cc1ccnc(NC(c2ccc([N+](=O)[O-])cc2)c2ccc3ccc(C)nc3c2O)c1 (centres unmarked) [Compound 35] | 0.0659 µM (≈ 0.0264 µg/mL) | – | –
3 | Cc1ccnc(NC(c2ccc([N+](=O)[O-])cc2)c2ccc3cccnc3c2O)c1 (centres unmarked) [Compound 34] | 0.0741 µM (≈ 0.0286 µg/mL) | – | –
4 | Cc1ccc2c(Cl)cc(Cl)c(O)c2n1 [Compound 61, 5,7-dichloro-2-methyl-8-hydroxy-quinoline] | 0.394 µM (≈ 0.0899 µg/mL) | – | –
5 | Oc1c(C(Nc2ccccn2)c2ccccc2)ccc2cccnc12 (centres unmarked) [Compound 57, 7-(Phenyl((pyridin-2-yl)amino)methyl)quinolin-8-ol] | 0.078 µM (≈ 0.0255 µg/mL) | ~1200 µM (≈ 393 µg/mL) | –
6 | Oc1c(I)cc(Cl)c2cccnc12 [Compound 58, 5-chloro-7-iodo-8-hydroxy-quinoline, reference compound] | < 0.001 µM | – | 13 to 25 µM
7 | COc1ccc(C(Nc2ccccn2)c2ccc3ccc(C)nc3c2O)cc1 (centres unmarked) [Compound 37] | 0.0338 µM (≈ 0.0126 µg/mL) | – | –
8 | COc1ccc(C(Nc2ccccn2)c2ccc3cccnc3c2O)cc1 (centres unmarked) [Compound 36] | 0.0053 µM (≈ 0.00189 µg/mL) | – | –
9 | Oc1c(Cl)cc(Cl)c2cccnc12 [Compound 60, 5,7-dichloro-8-hydroxy-quinoline, reference compound] | 0.5 µM (≈ 0.107 µg/mL) | – | –
